Measured values published in US9783522B2, “2-amino-pyridine and 2-amino-pyrimidine derivatives and medicinal use thereof” (MITSUBISHI TANABE PHARMA CORPORATION, priority 2014, dated 2017).

molecular target: human recombinant ATX (Homo sapiens, UniProt Q13822); test: Enzyme inhibitory test (choline release from LPC, fluorescence); assay type: biochemical; settings: LPC substrate, room temperature 1 hr, read-out: Experimental Example 1 human ATX IC50
Description: A mixture (10 μL) of substrate and a set of choline quantification reagents (200 μM LPC (1-Oleoyl-sn-glycero-3-phosphocholine Sigma #L1881), 25 μM Amplex UltraRed reagent (Invitrogen), 0.1 U/mL Peroxidase (TOYOBO), 1 U/mL Choline oxidase (TOYOBO)), prepared with assay buffer (50 mM Tris (pH 8.0), 140 mM NaCl, 5 mM KCl, 1 mM CaCl2, 1 mM MgCl2, 0.1% BSA (Albumin from bovine serum, SIGMA), 0.0025% Triton X-100), enzyme (0.4 ng/μL human recombinant ATX) (10 μL), compound-containing solution (100 nL) were dispensed to a 384-well plate, incubated at room temperature for 1 hr and the fluorescence (Ex.525 nm/Em.598 nm) was measured. As the standard, choline chloride was used. With a blank free of enzyme was taken as inhibitory rate 100%, and a control free of inhibitor as inhibitory rate 0%, the inhibitory rate was calculated, and IC50 value was calculated from the inhibitory activity percentage at each concentration.

How did the IC50 turn out when `COc1c(C#N)cc(-c2ccc(NCc3cccc(OC(F)(F)F)c3)nc2)cc1C(=O)O` [Example 63] was run?
Its IC50 is 0.025 µM.

For `COc1c(C#N)cc(-c2cnc(NCc3cccc(OC(F)(F)F)c3)nc2)cc1CCC(=O)O` [Example 85], which IC50 is on record?
Its IC50 is 0.007 µM.

For `COc1cc(-c2ccc(NCc3cccc(OC(F)(F)F)c3)nc2)ccc1C1CC1C(=O)O` (stereo not shown) [Example 88], which IC50 is on record?
Its IC50 is 0.02 µM.

For `O=C(O)CCc1cc(-c2cnc(NCc3cccc(OC(F)(F)F)c3)nc2)ccc1Cl` [Example 11, 3-{2-chloro-5-[2-(3-trifluoromethoxy-benzylamino)-pyrimidin-5-yl]-phenyl}-propionic acid], which IC50 is on record?
The IC50 was 0.013 µM.

How did the IC50 turn out when `O=C(O)c1cc(-c2cnc(NCc3cccc(OC(F)(F)F)c3)nc2)cc(OC2CNC2)c1Cl` [Example 30, 3-(azetidin-3-yloxy)-2-chloro-5-[2-(3-trifluoromethoxy-benzylamino)-pyrimidin-5-yl]-benzoic acid] was run?
Its IC50 is 0.022 µM.

For `COc1ccc(-c2ccc(NCc3cccc(OC(F)(F)F)c3)nc2)cc1CCC(=O)O` [Example 22, 3-{2-methoxy-5-[6-(3-trifluoromethoxy-benzylamino)-pyridin-3-yl]-phenyl}-propionic acid], which IC50 is on record?
Its IC50 is 0.033 µM.

For `O=C(O)c1cccc2nc(-c3ccc(NCc4cccc(OC(F)(F)F)c4)nc3)[nH]c12` [Example 2, 2-[6-(3-trifluoromethoxy-benzylamino)-pyridin-3-yl]-3H-benzimidazole-4-carboxylic acid], which IC50 is on record?
Its IC50 is 0.046 µM.

How did the IC50 turn out when `COCCOc1cc(-c2cnc(NCc3cccc(OC(F)(F)F)c3)nc2)cc(C(=O)O)c1Cl` [Example 132] was run?
The IC50 was 0.015 µM.

For `Cn1nc(C(=O)O)c2cc(-c3cnc(NCc4cccc(OC(F)(F)F)c4)nc3)ccc21` [Example 74], which IC50 is on record?
Its IC50 is 0.003 µM.

Which IC50 does the source give for `O=C(O)c1ccc2nc(-c3ccc(NCc4cccc(OC(F)(F)F)c4)nc3)oc2c1` [Example 3, 2-[6-(3-trifluoromethoxy-benzylamino)-pyridin-3-yl]-benzoxazole-6-carboxylic acid] here?
Its IC50 is 0.035 µM.

With `COCCn1nc(C(=O)O)c2cc(-c3ccc(NCc4cccc(OC(F)(F)F)c4)nc3)ccc21` [Example 73] as the compound, how does the IC50 read?
The IC50 was 0.009 µM.

How did the IC50 turn out when `COc1c(C(=O)O)cc(-c2cnc(NCc3cccc(OC(F)(F)F)c3)nc2)cc1-c1ccncc1` [Example 33, 2-methoxy-3-pyridin-4-yl-5-[2-(3-trifluoromethoxy-benzylamino)-pyrimidin-5-yl]-benzoic acid] was run?
The IC50 was 0.01 µM.

For `COc1ccc(-c2ccc(NCc3cccc(OC(F)(F)F)c3)nc2)nc1[C@H]1C[C@@H]1C(=O)O` [16 (compound 1a), (1S,2S)-2-[5-methoxy-6′-(3-trifluoromethoxy-benzylamino)-[2,3′]bipyridinyl-6-yl]-cyclopropanecarboxylic acid], which IC50 is on record?
Its IC50 is 0.002 µM.

Which IC50 does the source give for `COc1ccc(-c2ccc(NCc3cccc(C(C)C)c3)nc2)cc1C(=O)O` [Example 176] here?
The IC50 was 0.047 µM.

How did the IC50 turn out when `O=C(O)CN1CCN(c2ccc(-c3ccc(NCc4cccc(OC(F)(F)F)c4)nc3)cc2F)C1=O` [Example 44] was run?
Its IC50 is 0.075 µM.

Which IC50 does the source give for `COc1ccc(-c2ccc(NCc3cccc(OC(F)(F)F)c3)nc2)cc1C(=O)O` [Example 34, 2-methoxy-5-[6-(3-trifluoromethoxy-benzylamino)-pyridin-3-yl]-benzoic acid] here?
Its IC50 is 0.083 µM.

How did the IC50 turn out when `COc1ccc(-c2ccc(NCc3cccc(OC(F)(F)F)c3)nc2)cc1OCC(=O)O` [Example 129] was run?
Its IC50 is 0.043 µM.

For `COc1ccc(-c2ccc(NCc3cccc(OC(F)(F)F)c3)nc2)cc1CC(=O)O` [Example 109], which IC50 is on record?
The IC50 was 0.012 µM.

With `COc1c(C#N)cc(-c2ccc(NCc3cccc(OC(F)(F)F)c3)nc2)cc1C(C)(C)C(=O)O` [Example 26, 2-{3-cyano-2-methoxy-5-[6-(3-trifluoromethoxy-benzylamino)-pyridin-3-yl]-phenyl}-2-methyl-propionic acid] as the compound, how does the IC50 read?
Its IC50 is 0.015 µM.

For `O=C(O)c1cc(-c2cnc(NCc3cccc(OC(F)(F)F)c3)nc2)cc(OC2CCOCC2)c1Cl` [Example 133], which IC50 is on record?
Its IC50 is 0.01 µM.

`COc1c(C(=O)O)cc(-c2cnc(NCc3cccc(OC(F)(F)F)c3)nc2)cc1-c1ccoc1` [Example 140] was tested. Which IC50 did it give?
Its IC50 is 0.031 µM.

Which IC50 does the source give for `COc1c(CCC(=O)O)cc(-c2ccc(NCc3cccc(OC(F)(F)F)c3)nc2)cc1C1COC1` [Example 92] here?
The IC50 was 0.023 µM.

Which IC50 does the source give for `O=C(O)c1cc(-c2cnc(NCc3cccc(OC(F)(F)F)c3)nc2)cc(OC2COC2)c1Cl` [Example 136] here?
The IC50 was 0.031 µM.

How did the IC50 turn out when `COc1c(C#N)cc(-c2ccc(NCc3cccc(OC(F)(F)F)c3)nc2)cc1CCC(=O)O` [Example 10, 3-{3-cyano-2-methoxy-5-[6-(3-trifluoromethoxy-benzylamino)-pyridin-3-yl]-phenyl}-propionic acid] was run?
Its IC50 is 0.017 µM.

For `Cn1nc(C(=O)O)c2cc(-c3ccc(NCc4cccc(OC(F)(F)F)c4)nc3)ccc21` [Example 7, 1-methyl-5-[6-(3-trifluoromethoxy-benzylamino)-pyridin-3-yl]-1H-indazole-3-carboxylic acid], which IC50 is on record?
The IC50 was 0.003 µM.

Which IC50 does the source give for `COc1ccc(-c2cnc(NCc3cccc(OC(F)(F)F)c3)nc2)cc1CCC(=O)O` [Example 21, 3-{2-methoxy-5-[2-(3-trifluoromethoxy-benzylamino)-pyrimidin-5-yl]-phenyl}-propionic acid] here?
The IC50 was 0.037 µM.

Which IC50 does the source give for `COc1ccc(-c2ccc(NCc3cccc(OC(F)(F)F)c3)nc2)c2[nH]nc(C(=O)O)c12` [Example 69] here?
Its IC50 is 0.01 µM.

For `COc1cc(-c2ccc(NCc3cccc(OC(F)(F)F)c3)nc2)cc(OC)c1CCC(=O)O` [Example 98], which IC50 is on record?
The IC50 was 0.007 µM.

`COc1cc(-c2ccc(NCc3cccc(OC(F)(F)F)c3)nc2)ccc1OC[C@H]1CC[C@H](C(=O)O)CC1` [Example 126] was tested. Which IC50 did it give?
The IC50 was 0.092 µM.

Which IC50 does the source give for `COc1c(Cn2ccnc2)cc(-c2ccc(NCc3cccc(OC(F)(F)F)c3)nc2)cc1C(C)(C)C(=O)O` [Example 108] here?
Its IC50 is 0.024 µM.

How did the IC50 turn out when `COc1ccc(-c2cnc(NCc3cccc(OC(F)(F)F)c3)nc2)cc1C(=O)O` [Example 156] was run?
Its IC50 is 0.093 µM.

How did the IC50 turn out when `CS(=O)(=O)CCCn1nc(C(=O)O)c2cc(-c3ccc(NCc4cccc(OC(F)(F)F)c4)nc3)ccc21` [Example 75] was run?
The IC50 was 0.006 µM.

Which IC50 does the source give for `COc1ccc(-c2cnc(NCc3cccc(OC(F)(F)F)c3)nc2)nc1[C@H]1C[C@@H]1C(=O)O` [17 (compound 4a), (1S,2S)-2-{3-methoxy-6-[2-(3-trifluoromethoxy-benzylamino)-pyrimidin-5-yl]-pyridin-2-yl}-cyclopropanecarboxylic acid] here?
The IC50 was 0.002 µM.

molecular target: T1, ATX activity in plasma (Rattus norvegicus, UniProt Q64610); test: Measurement of ATX activity in plasma (ex vivo) after oral administration to rats; settings: male Wistar rat, 8 hr after administration, plasma ATX activity vs solvent control
T1 construct: from tissue; host or cells: plasma of male Wistar rats after oral dosing (ex vivo)
Description: A compound administration solution prepared by wet pulverization in a mixer mill (type: MM400) for 10 min and adjusting to a given concentration with 0.5% aqueous carboxymethylcellulose solution was orally administered to male Wistar rat (5-week-old when used) at 5 mL/kg. Blood samples were collected from the cervical vein over time at 8 to 24 hr after administration. The blood was heparin-treated using a micro blood collection tube Capiject (CJ-AL, TERUMO CORPORATION), and the plasma was separated by centrifugation (4° C., 12,000 rpm, 2 min), and preserved at −80° C. The rats after blood sampling were euthanized by exsanguination from the caudal vena cava under isoflurane inhalation anesthesia. The measurement of ATX activity in plasma was evaluated using the concentration of choline in the plasma, which was liberated from lysophosphatidylcholine (substrate of ATX) by the lysophospholipase D activity of ATX, as an index. An equal amount of 2× assay buffer (200 mM Tris-HCl pH9.0, 10 mM MgCl2, 1 M NaCl, 0.1% Triton X-100) is added to plasma (12 μL) and reacted at 37° C. for 6 hr. The reaction mixture (10 μL) after reaction for 6 hr and 45 μL of reagent R1 solution (100 mM Tris-HCl pH 8.0, 0.5 mM TOOS, 10 U/mL peroxidase, 0.01% Triton X-100) were added and blended and absorbance at 550-700 nm was measured and used as a prevalue. As the standard, choline chloride was used. 1 mM choline chloride was diluted with 2× assay buffer up to 7 steps in 2-fold serial dilution, R1 solution was treated similarly and the absorbance was measured. Furthermore, 15 μL of reagent R2 solution (100 mM Tris-HCl pH 8.0, 1 mM 4-aminoantipyrine, 10 U/mL choline oxidase, 0.01% Triton X-100) was added, and the mixture was reacted at room temperature for 10 min, and absorbance at 550-700 nm was measured. The choline concentration per reaction time was calculated from the difference between the absorbance after R2 solution addition and prevalue measured before R2 addition and used as ATX activity value. inhibitory activity (%)=100×{1-[choline concentration (μM) of test substance administration group/choline concentration (μM) of solvent control group]} <calculating formula>

How did the “Experimental Example 2 rat single administration test (inhibitory activity (%) at 8 hr after 1 mg/kg oral administration)” value turn out when `COc1c(C#N)cc(-c2cnc(NCc3cccc(OC(F)(F)F)c3)nc2)cc1CCC(=O)O` [Example 85] was run?
The value was 88%.

How did the “Experimental Example 2 rat single administration test (inhibitory activity (%) at 8 hr after 1 mg/kg oral administration)” value turn out when `COc1c(C#N)cc(-c2ccc(NCc3cccc(OC(F)(F)F)c3)nc2)cc1CCC(=O)O` [Example 10, 3-{3-cyano-2-methoxy-5-[6-(3-trifluoromethoxy-benzylamino)-pyridin-3-yl]-phenyl}-propionic acid] was run?
The value was 84%.

For `COc1ccc(-c2cnc(NCc3cccc(OC(F)(F)F)c3)nc2)cc1C(=O)O` [Example 156], which “Experimental Example 2 rat single administration test (inhibitory activity (%) at 8 hr after 1 mg/kg oral administration)” value is on record?
The value was 82%.

Which “Experimental Example 2 rat single administration test (inhibitory activity (%) at 8 hr after 1 mg/kg oral administration)” value does the source give for `COc1ccc(-c2cnc(NCc3cccc(OC(F)(F)F)c3)nc2)nc1[C@H]1C[C@@H]1C(=O)O` [17 (compound 4a), (1S,2S)-2-{3-methoxy-6-[2-(3-trifluoromethoxy-benzylamino)-pyrimidin-5-yl]-pyridin-2-yl}-cyclopropanecarboxylic acid] here?
The value was 88%.
